{"source": "paper PMC5686395", "about": "“Eukaryotic-type serine/threonine kinase mediated phosphorylation at Thr^169 perturbs mycobacterial guanylate kinase activity” (Bioscience Reports, 2017)", "key": {"PknB": {"target": "PknB (Mycobacterium tuberculosis, UniProt P9WI81)", "sequence (P9WI81 2-626)": "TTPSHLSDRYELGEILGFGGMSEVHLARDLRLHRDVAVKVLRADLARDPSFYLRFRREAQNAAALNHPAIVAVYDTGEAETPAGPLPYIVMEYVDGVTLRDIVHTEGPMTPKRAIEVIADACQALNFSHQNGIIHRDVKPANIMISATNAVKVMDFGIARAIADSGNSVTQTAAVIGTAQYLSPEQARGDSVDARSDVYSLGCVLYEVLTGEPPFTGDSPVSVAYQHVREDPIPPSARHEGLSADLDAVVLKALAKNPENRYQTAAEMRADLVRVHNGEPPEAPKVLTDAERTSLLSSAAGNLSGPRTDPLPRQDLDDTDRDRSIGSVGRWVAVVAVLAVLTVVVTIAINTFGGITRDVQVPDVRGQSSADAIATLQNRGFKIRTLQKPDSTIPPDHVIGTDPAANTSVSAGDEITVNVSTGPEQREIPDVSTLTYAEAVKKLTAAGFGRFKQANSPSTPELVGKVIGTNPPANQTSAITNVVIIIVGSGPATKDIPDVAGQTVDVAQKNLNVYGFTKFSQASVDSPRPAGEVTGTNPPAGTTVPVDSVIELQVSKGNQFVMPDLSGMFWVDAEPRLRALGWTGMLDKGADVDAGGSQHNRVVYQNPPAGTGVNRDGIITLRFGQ"}, "PknA-core (PknA-338)": {"target": "PknA-core (PknA-338) (Mycobacterium tuberculosis, UniProt P9WI83)", "sequence (P9WI83 1-338)": "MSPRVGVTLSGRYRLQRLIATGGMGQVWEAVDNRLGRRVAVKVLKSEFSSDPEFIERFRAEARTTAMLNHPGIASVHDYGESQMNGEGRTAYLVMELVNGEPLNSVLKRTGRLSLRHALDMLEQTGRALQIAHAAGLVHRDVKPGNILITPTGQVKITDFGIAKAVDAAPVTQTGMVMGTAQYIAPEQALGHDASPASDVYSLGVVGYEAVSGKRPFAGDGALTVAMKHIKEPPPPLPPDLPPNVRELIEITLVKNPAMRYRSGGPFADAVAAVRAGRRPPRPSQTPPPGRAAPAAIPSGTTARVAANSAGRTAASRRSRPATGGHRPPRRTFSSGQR"}}, "data": [{"smiles": "Nc1ncnc2c1ncn2[C@@H]1O[C@H](COP(=O)(O)OP(=O)(O)OP(=O)(O)O)[C@@H](O)[C@H]1O", "note": "[[γ-32P] ATP]", "values": [{"measurement": "in vitro kinase assay, SDS/PAGE and autoradiography", "setting": "PknB", "result": "PknB, another essential mycobacterial kinase, instead of PknA in the assay yielded weak p-mGmk"}, {"measurement": "in vitro kinase assay, SDS/PAGE and autoradiography", "setting": "PknA-core (PknA-338)", "result": "its incubation with PknA exhibited phosphorylation"}]}]}
